Measured values taken from patent publication US20110245218A1 (priority 2010, published 2011).

SMILES | melting point [°C]
CN1C(=O)C(SC(=N)N)=C(SC(=N)N)C1=O [Compound 1, [(1-methyl-2,5-dioxo-2,5-dihydro-1H-pyrrole-3,4-diyl)disulphanediyl]bis(aminomethaniminium) dichloride] | 163 to 164
CN1C(=O)C(S)=C(S)C1=O | 145 to 148
CN1C(=O)C(S)=C(SC(=N)N)C1=O [Compound 27, 4-{[amino(iminio)methyl]sulphanyl}-1-methyl-2,5-dioxo-2,5-dihydro-1H-pyrrole-3-thiolate] | 150 to 152
